# According to patent publication US20020086835A1, “Use of adenosine deaminase inhibitors to treat systemic inflammatory response syndrome” (priority 2000, published 2002):
# Assays:
# [1] = human blood; cited from earlier work
# TNF-α = experiment: Serum TNF-α by ELISA in rats with chronic peritoneal sepsis (200 mg/kg cecal slurry ip); format: in vivo, rat; details: septic rats, versus saline-treated septic group
# Method: Studies were conducted to determine if manipulation of adenosine-mediated events would result in alterations in the TNF-α response in this model. At the time of sepsis induction, rats were treated in one of four ways. One group received only 0.9% normal saline as a vehicle control (No Rx; n=6). […] The third group received the adenosine deaminase inhibitor, erythro-9-(2-hydroxy-3-nonyl)adenine (EHNA; 1 μmole/kg+1 μmole/kg/hr; iv; n=3). A fourth group received the adenosine receptor antagonist 8-sulfophenyltheophylline (SPT; 400 μg/kg/8 hours; n=5).
# Sepsis was induced under pentobarbital anesthesia (50 mg/kg) in each rat by intraperitoneal (ip) injection of 200 mg/kg rat cecal contents mixed as a slurry in 5% dextrose in water (D5W). […] Non-septic controls received an equivalent volume ip injection of D5W. Polyethylene catheters (Intramedic PE-50, Baxter) were inserted into the right internal jugular vein and right carotid artery. The jugular catheter was used for venous access (drug infusions; volume replacement, etc). The carotid catheter was used to obtain arterial blood samples, and to monitor arterial blood pressure and heart rate. The catheters were secured in their respective vessels, tunneled subcutaneously to exit in the interscapular region, and filled with heparinized saline (50 units/ml 0.9% normal saline). Incisions were closed in layers using 3-0 silk. Rats were allowed to recover from anesthetic and provided food and water ad libitum,
# Serum and tissue tumor necrosis factor-α (TNF-α) concentrations were determined by enzyme-linked immunosorbant assay. Samples of serum, liver, and spleen were collected, rapidly weighed, and frozen in liquid nitrogen. On the day of assay, tissues are added to labeled tubes containing lysis buffer (volume=10 ml/gram wt. with 1:10 dilution) and kept on ice. The lysis buffer is 20 mM Tris (pH 7.4) containing […] phenylmethylsulfonylflouride (PMSF), […] leupeptin, 0.7 g/ml pepstatin, and 2.0 g/ml aprotinin to inhibit proteases. Samples were immediately homogenized using five 3 see bursts, washing grinding pistol (3×) between samples with phosphate buffered saline. Samples are then centrifuged for 20 min at 2200 RPM, 4° C. The supernatant was removed and used for TNF-α measurements. Briefly, each microplate well contained 50 μl of assay diluent. To each well, 50 μl of standard, control, or serum/homogenate supernatant sample were added and mixed on an orbital plate shaker. Plates were incubated at room temperature for 2 hours. Each well was then aspirated and washed with wash buffer 4 times. After final aspiration of wash buffer, 100 μl of rat TNF-α conjugate was added to each well. Wells were then covered and incubated for 2 hours at room temperature. At the end of the incubation, the aspiration/wash procedure was repeated 4 times, after which 100 μl of stabilized chromogen solution was added to each well. Next, plates were incubated for 45 minutes at room temperature in a dark area. After this final incubation period, 100 μl stopping solution was added to each well. Optical density of each well at […] was determined within 30 minutes using a Biotek Instruments EL312e microtiter plate reader. Concentrations of TNF-α were calculated from the standard curves.
# At the time of sepsis induction, rats were treated in one of three ways. One group received only 0.9% normal saline as a vehicle control (VEH, n=6, where n is the number of rats). […] A third group received the adenosine receptor antagonist, 8-sulfophenyltheo-phylline (SPT; 400 μg/kg/8 h; n=5). Serum TNF-α (pg/ml) was determined at 4 and 24 hours after sepsis induction by ELISA.
# Male SD rats (350-400 g) were made septic by IP introduction of a 200 mg/kg cecal slurry. […] TNF-α (pg/ml) was determined at 4 and 24 hours after sepsis induction by ELISA.
# adenosine deaminase [2] = biological target: T1, adenosine deaminase (Homo sapiens, UniProt P00813); details: potency of inhibition of the enzyme
# T1 sequence (P00813 1-363): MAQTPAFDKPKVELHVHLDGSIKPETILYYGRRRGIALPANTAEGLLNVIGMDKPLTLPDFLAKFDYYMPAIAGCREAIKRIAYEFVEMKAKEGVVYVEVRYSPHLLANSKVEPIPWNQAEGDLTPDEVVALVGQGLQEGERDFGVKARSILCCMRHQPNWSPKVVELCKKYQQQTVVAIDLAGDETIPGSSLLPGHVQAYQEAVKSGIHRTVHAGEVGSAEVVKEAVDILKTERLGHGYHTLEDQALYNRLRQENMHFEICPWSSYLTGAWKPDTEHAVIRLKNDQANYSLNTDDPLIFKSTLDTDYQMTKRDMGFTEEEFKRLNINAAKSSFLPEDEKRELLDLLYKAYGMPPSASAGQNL
# adenosine deaminase [3] = biological target: T1, adenosine deaminase; details: read-out: Inhibitory constant for adenosine deaminase; cited from earlier work
# adenosine deaminase [4] = details: in perfusion medium, in the presence of 5′-amino-5′-deoxyadenosine; cited from earlier work
Activity relative to pentostatin (times less active) (adenosine deaminase [2]),SMILES,Half life [1] [s],Effect on serum TNF-α response to sepsis at 4 hours (TNF-α; 4 hours),Effect on serum TNF-α response to sepsis at 24 hours (TNF-α; 24 hours),Ki (adenosine deaminase [3]) [nM],Increase of adenosine release (adenosine deaminase [4]) [fold]
–,Nc1ncnc2c1ncn2[C@@H]1O[C@H](CO)[C@@H](O)[C@H]1O [Adenosine],< 1,–,–,–,–
one thousand,"CCCCCCC(C(C)O)n1cnc2c(N)ncnc21 (stereo not drawn) [EHNA, erythro-9-(2-hydroxy-3-nonyl)adenine]",–,attenuation of this response,attenuation of this response,1,15
